{"source": "patent US20100255580A1", "about": "“Differentiation of Human Embryonic Stem Cells” (LIFESCCAN, INC., priority 2007, published 2010)", "system": "human embryonic stem cell line H9", "assay": "Immunocytochemistry of endoderm markers, H9", "type": "cell-based", "conditions": "activin A for five days", "source_text": "The level of expression of definitive endoderm markers was examined by PCR (FIG. 1), FACS (results summarized in Table II), and immunohistochemistry (FIG. 2).\nCells were harvested at the time points indicated in FIG. 3 and assayed by PCR for the expression of genes shown (FIGS. 3, 4 and 5).", "data": [{"substance": "Activin A: a member of the TGFβ superfamily; R&D Systems; Group 2 = Activin A (100 ng/ml)", "values": [{"measurement": "cells positive for Sox17 and HNF-3beta (immunocytochemistry)", "result": "30-40%"}, {"measurement": "differentiated cells still Oct4 positive (immunocytochemistry)", "result": "~100", "unit": "%"}]}]}
